Common to all, as to type: functional, organism-based
For assay [1], the system named is Felis catus. Briefly: Effect on activity of peroxidase in acinar cells of cat at 0.3 mg/kg, iv dosed 10 mins before dosing of 7.3 mg/kg, iv propranolol and measured after 20 mins post ligand dose.
The subject of assay [2] is Felis catus. The assay is described as follows: Effect on distribution of peroxidase in acinar cells of cat at 0.3 mg/kg, iv dosed 10 mins before dosing of 7.3 mg/kg, iv propranolol and measured after 20 mins post ligand dose by electron microscopy.
In assay [3] the test system is Felis catus. Briefly: Effect on activity of peroxidase in acinar cells of cat at 0.3 mg/kg, iv dosed 10 mins before dosing of 7.3 mg/kg, iv propranolol and measured after 60 mins post ligand dose.
Assay [4] concerns Felis catus. Briefly: Effect on distribution of peroxidase in acinar cells of cat at 0.3 mg/kg, iv dosed 10 mins before dosing of 7.3 mg/kg, iv propranolol and measured after 60 mins post ligand dose by electron microscopy.
Assay [5] concerns Felis catus. The assay is described as follows: Effect on peroxidase reaction product in r-ER, Golgi complex, and secretory granules in acinar cells of cat at 0.3 mg/kg, iv dosed 10 mins before dosing of 7.3 mg/kg, iv propranolol and measured after 60 mins post ligand dose.
For assay [6], the system named is Felis catus. The assay is described as follows: Increase in granule content containing the peroxidase reaction product discharged into acinar lumen in cat at 0.3 mg/kg, iv after 20 mins.
Assay [7] relates to Felis catus. Briefly: Effect on peroxidase reaction product in r-ER, Golgi complex, and secretory granules in acinar cells of cat at 0.3 mg/kg, iv dosed 10 mins before dosing of 7.3 mg/kg, iv propranolol and measured after 20 mins post ligand dose.
For assay [8], the system named is Felis catus. The assay is described as follows: Reduction in secretion rate of electron dense peroxidase-positive granules in cat at 0.3 mg/kg, iv after 60 mins.
Assay [9] relates to Felis catus. Briefly: Decrease in Peroxidase activity in rough endoplasmic reticulum of cat at 8 mg/kg, iv dosed over 7 hours.
Assay [10] concerns Felis catus. Briefly: Decrease in Peroxidase activity in acinar cells of the nasal glands of cat at 8 mg/kg, iv dosed over 7 hours.
In assay [11] the test system is Felis catus. Briefly: Effect on activity of peroxidase in cat rough endoplasmic reticulum at 7.3 mg/kg, iv administered as single dose measured after 5 hrs.
The test system of assay [12] is Felis catus. Briefly: Effect on localization of peroxidase in secretory granules of cat at 7.3 mg/kg, iv administered as single dose measured after 30 mins by electron microscopy.
Assay [13] relates to Felis catus. The assay is described as follows: Effect on localization of peroxidase in rough endoplasmic reticulum of cat at 7.3 mg/kg, iv administered as single dose measured after 30 mins by electron microscopy.
Assay [14] concerns Felis catus. The assay is described as follows: Effect on activity of peroxidase in cat acinar cells at 7.3 mg/kg, iv administered as single dose measured after 30 mins.
In assay [15] the test system is Felis catus. Briefly: Reduction in peroxidase-positive secretory granules in cat at 7.3 mg/kg, iv administered as single dose measured after 5 hrs by electron microscopy.
Assay [16] concerns Felis catus. Briefly: Increase in secretory granules without peroxidase activity in cat at 7.3 mg/kg, iv administered as single dose measured after 9 hrs by electron microscopy.
The test system of assay [17] is Felis catus. The assay is described as follows: Increase in electron-lucent secretory granules in cat at 7.3 mg/kg, iv administered as single dose measured after 5 hrs by electron microscopy.
Assay [18] relates to Felis catus. Briefly: Effect on activity of peroxidase in cat in rough golgi complex at 7.3 mg/kg, iv administered as single dose measured after 5 hrs. The following applies: Golgi body.
Assay [19] concerns Felis catus. Briefly: Effect on activity of peroxidase in cat rough endoplasmic reticulum at 7.3 mg/kg, iv administered as single dose measured after 9 hrs.
The test system of assay [20] is Felis catus. The assay is described as follows: Effect on localization of peroxidase in rough golgi complex of cat at 7.3 mg/kg, iv administered as single dose measured after 30 mins by electron microscopy. The following applies: Golgi body.
Assay [21] concerns Felis catus. The assay is described as follows: Effect on activity of peroxidase in cat in rough golgi complex at 7.3 mg/kg, iv administered as single dose measured after 9 hrs. As to conditions: Golgi body.

The source made the active and inactive calls. The rule behind the calls is not given here.

This is an account of results in ChEMBL document CHEMBL5647687, “Beta-adrenoceptor control of peroxidase synthesis in nasal glands” (Ann Otol Rhinol Laryngol, 1990).

`CC(C)NCC(O)c1ccc(O)c(O)c1` (stereo unspecified): the result in assay [1], in assay [2], in [3], in [4], in [5] and in [7] was inactive. In addition, the result in assay [6] and in assay [8] was Active.

Consider `CC(C)NCC(O)COc1cccc2ccccc12` (stereo unspecified), for which the result in assay [9], in assay [10], in [15], in assay [16] and in assay [17] was Active. For the same molecule, the outcome in assay [11], in assay [12], in [13], in assay [14], in assay [18] and in [19] was inactive. The result in assay [20] and in assay [21] was inactive.
